Measurements taken from US9351955B2, “Compounds and pharmaceutical compositions thereof for the treatment of cystic fibrosis” (Galapagos NV, priority 2013, dated 2016).

Legend:
Assay type in all cases: cell-based
[1] = molecular target: T1, CFTR ΔF508 mutant (Homo sapiens, UniProt P13569, DEL508-508); assay: YFP-halide influx assay for the CFTR-ΔF508 mutation (96 well, CFBE41o- cells); conditions: compounds of the invention, 96 well, forskolin 10.67 μM, read-out: EC50 measured by YFP-halide influx assay for the CFTR-ΔF508
T1 construct: expressed in transfected cells; host or cells: CFBE41o- (adenoviral transduction)
T1 sequence (P13569 with tags, fused parts or gaps DEL508-508): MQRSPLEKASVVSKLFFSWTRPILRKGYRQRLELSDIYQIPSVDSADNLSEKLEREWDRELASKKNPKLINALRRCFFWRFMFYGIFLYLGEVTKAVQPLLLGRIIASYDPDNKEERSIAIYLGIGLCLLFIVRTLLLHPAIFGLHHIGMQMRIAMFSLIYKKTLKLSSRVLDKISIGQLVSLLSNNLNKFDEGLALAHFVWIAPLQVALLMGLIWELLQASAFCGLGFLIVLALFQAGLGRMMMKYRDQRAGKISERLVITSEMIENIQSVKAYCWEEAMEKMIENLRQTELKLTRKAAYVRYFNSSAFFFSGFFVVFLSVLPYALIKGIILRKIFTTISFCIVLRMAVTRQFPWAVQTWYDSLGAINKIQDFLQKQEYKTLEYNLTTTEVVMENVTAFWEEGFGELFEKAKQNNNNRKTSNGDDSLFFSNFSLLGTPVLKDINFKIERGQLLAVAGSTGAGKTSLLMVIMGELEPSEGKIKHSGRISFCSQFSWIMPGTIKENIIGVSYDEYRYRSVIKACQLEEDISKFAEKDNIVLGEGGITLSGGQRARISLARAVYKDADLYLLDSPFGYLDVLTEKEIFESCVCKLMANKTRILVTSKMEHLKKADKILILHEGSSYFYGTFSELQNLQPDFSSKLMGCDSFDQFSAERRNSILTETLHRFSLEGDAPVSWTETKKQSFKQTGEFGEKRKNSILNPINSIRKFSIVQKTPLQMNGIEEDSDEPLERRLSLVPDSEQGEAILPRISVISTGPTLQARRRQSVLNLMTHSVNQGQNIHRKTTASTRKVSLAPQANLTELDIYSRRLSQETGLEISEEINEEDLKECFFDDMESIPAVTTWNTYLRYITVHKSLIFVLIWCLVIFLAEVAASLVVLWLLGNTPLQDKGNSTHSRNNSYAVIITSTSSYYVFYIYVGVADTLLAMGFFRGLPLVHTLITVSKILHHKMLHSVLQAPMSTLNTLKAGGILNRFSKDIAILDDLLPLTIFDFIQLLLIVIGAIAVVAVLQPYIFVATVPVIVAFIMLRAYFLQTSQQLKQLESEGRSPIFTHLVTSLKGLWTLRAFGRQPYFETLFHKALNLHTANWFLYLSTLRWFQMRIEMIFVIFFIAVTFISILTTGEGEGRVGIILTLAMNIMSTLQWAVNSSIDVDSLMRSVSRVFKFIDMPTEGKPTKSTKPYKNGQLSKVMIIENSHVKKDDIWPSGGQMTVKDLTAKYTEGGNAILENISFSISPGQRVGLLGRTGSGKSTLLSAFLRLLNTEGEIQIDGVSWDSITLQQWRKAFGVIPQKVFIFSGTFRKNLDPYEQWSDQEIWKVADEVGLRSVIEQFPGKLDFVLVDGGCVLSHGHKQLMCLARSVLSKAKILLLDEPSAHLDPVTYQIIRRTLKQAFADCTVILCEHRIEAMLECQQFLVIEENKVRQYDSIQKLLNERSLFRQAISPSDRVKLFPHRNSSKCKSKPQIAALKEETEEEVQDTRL
Source text: 6.1. YFP-Halide Influx Assay for the CFTR-ΔF508 Mutation
The YFP halide influx assay measures the functionality of the cystic fibrosis Transmembrane Conductance regulator (CFTR) channels in the cystic fibrosis bronchial epithelium cell line CFBE41o-. The assay is used to evaluate the capacity of compounds to increase the open probability of existing CFTR channels in the membrane. It makes use of the observation that the yellow fluorescent protein (YFP) variant YFP H148Q, I152L has its fluorescence substantially quenched by halide ions like Cl^− and I^−. (Galietta et al., 2001; Nagai et al., 2002)
For this purpose, CFBE410-cells are seeded in 96 well plates (6000 CFBE cells/well). One day after seeding, the CFBE cells are transduced with adenoviral vectors that direct the expression of the CFTR ΔF508 mutant and of the YFP reporter. Cells are incubated at 27° C., 5% CO2 for 24 hours so as to allow for the proper folding and migration to the membrane of the CFTR channel or treated with a CFTR modulator during 24 h at 37° C.
The […] quenching of fluorescence is recorded immediately after injection of I^− for 7 seconds. The capacity of a compound to increase the channel opening is directly correlated with the decrease in fluorescence, and is expressed as (1-(fluorescence after 7 seconds (F)/fluorescence before injection (F0))) and an EC50 can be derived from a (1−F/F0) vs compound concentration plot.

[2] = molecular target: T1, CFTR ΔF508 mutant; assay: YFP-halide influx assay for the CFTR-ΔF508 mutation (384 well, CFBE41o- cells, FDSS/μCell); conditions: forskolin 10.67 μM, fluorescence after 36 seconds, read-out: EC50 measured by YFP-halide influx assay for the CFTR-ΔF508
Summary of the method: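 CFBE41o- cells were adenovirally transduced with ΔF508 CFTR and the YFP H148Q/I152L reporter. Cells were then held 24 h at 27 °C or treated 24 h at 37 °C with a CFTR modulator. Iodide-induced quench was recorded for 2 min, and EC50 was derived from 1−F/F0 at 36 s against compound concentration.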

[3] = molecular target: T2, CFTR G551D mutant (Homo sapiens, UniProt P13569, G551D); assay: YFP-halide influx assay for the CFTR-G551D mutation (HEK293 cells); conditions: HEK293 cells expressing CFTR G551D and YFP reporter; forskolin 10.67 μM; read-out: EC50 measured by YFP-halide influx assay for the CFTR-G551D
T2 construct: expressed in transfected cells; host or cells: HEK293 (reverse transfection with plasmids)
T2 sequence (P13569 whole entry G551D): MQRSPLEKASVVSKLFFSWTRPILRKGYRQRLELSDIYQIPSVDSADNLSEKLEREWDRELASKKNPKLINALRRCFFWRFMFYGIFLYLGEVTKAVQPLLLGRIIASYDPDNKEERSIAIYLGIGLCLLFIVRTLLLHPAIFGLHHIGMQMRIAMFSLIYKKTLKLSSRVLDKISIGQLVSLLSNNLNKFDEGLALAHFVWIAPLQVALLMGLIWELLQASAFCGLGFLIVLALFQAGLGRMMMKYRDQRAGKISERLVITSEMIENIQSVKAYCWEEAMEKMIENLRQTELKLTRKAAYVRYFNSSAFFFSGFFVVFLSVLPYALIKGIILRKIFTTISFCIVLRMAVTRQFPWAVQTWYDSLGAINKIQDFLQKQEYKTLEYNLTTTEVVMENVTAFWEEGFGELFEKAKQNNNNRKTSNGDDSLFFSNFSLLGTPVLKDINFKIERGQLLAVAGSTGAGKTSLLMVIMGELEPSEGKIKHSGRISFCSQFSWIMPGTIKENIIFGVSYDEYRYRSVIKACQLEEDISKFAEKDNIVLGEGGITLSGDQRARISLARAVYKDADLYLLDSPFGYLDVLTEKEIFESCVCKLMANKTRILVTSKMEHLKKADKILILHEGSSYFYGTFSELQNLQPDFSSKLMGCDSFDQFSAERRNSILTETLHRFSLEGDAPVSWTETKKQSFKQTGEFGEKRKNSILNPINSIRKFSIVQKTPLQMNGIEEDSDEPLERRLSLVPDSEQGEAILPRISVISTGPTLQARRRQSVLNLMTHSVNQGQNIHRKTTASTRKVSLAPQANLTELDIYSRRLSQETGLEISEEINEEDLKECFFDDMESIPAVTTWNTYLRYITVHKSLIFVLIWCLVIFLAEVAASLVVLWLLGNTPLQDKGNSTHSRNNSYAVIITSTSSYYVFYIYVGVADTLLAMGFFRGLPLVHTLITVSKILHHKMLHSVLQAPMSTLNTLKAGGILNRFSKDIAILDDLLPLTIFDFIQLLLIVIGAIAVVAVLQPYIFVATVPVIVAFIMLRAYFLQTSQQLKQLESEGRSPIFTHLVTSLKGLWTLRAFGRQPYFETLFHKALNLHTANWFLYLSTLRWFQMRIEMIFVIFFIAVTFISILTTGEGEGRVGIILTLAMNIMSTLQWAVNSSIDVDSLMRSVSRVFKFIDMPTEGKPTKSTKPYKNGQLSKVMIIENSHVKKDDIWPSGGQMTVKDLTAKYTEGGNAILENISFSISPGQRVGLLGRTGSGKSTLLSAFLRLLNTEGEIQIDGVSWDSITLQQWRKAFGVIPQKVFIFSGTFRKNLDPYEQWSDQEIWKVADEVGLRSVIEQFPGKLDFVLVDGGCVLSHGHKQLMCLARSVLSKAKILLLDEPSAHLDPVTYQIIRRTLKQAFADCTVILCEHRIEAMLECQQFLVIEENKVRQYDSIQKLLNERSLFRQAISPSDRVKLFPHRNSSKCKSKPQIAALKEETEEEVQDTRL
Summary of the method: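 HEK293 cells reverse-transfected with CFTR G551D and halide-sensitive YFP, expressed 24 h at 37 °C. Iodide-induced fluorescence quench recorded for 7 s after I^− injection; response as 1−F/F0, EC50 from concentration plot.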

SMILES	EC50 [1] [nM]	EC50 [2] [nM]	EC50 [3] [nM]
CCc1n[nH]c(C(=O)Nc2sc3c(c2C(N)=O)CC(C)(C)OC3(C)C)c1C [Compound 19, N-(3-carbamoyl-5,5,7,7-tetramethyl-5,7-dihydro-4H-thieno[2,3-c]pyran-2-yl)-3-ethyl-4-methyl-1H-pyrazole-5-carboxamide]	41.8	7.33	357
CC1(C)Cc2c(sc(NC(=O)c3cccnc3F)c2C(N)=O)C(C)(C)O1 [Compound 20, N-(3-carbamoyl-5,5,7,7-tetramethyl-5,7-dihydro-4H-thieno[2,3-c]pyran-2-yl)-2-fluoronicotinamide]	305	422	3290
CC1(C)Cc2c(sc(NC(=O)c3cccnc3O)c2C(N)=O)C(C)(C)O1 [Compound 23, N-(3-carbamoyl-5,5,7,7-tetramethyl-5,7-dihydro-4H-thieno[2,3-c]pyran-2-yl)-2-oxo-1,2-dihydropyridine-3-carboxamide]	102	190	1270
CC1(C)Cc2c(sc(NC(=O)c3ccccc3-c3ncc[nH]3)c2C(N)=O)C(C)(C)O1 [Compound 27, 2-(2-(1H-imidazol-2-yl)benzamido)-5,5,7,7-tetramethyl-5,7-dihydro-4H-thieno[2,3-c]pyran-3-carboxamide]	440	189	1670
CC1(C)Cc2c(sc(NC(=O)c3ccccc3NS(C)(=O)=O)c2C(N)=O)C(C)(C)O1 [Compound 28, 5,5,7,7-tetramethyl-2-(2-(methylsulfonamido)benzamido)-5,7-dihydro-4H-thieno[2,3-c]pyran-3-carboxamide]	378	147	2000
CC1(C)Cc2c(sc(NC(=O)C3CCNC3=O)c2C(N)=O)C(C)(C)O1 (stereo not drawn) [Compound 30, N-(3-carbamoyl-5,5,7,7-tetramethyl-5,7-dihydro-4H-thieno[2,3-c]pyran-2-yl)-2-oxopyrrolidine-3-carboxamide]	141	101	6660
CC1(C)Cc2c(sc(NC(=O)c3n[nH]c4c3COCC4)c2C(N)=O)C(C)(C)O1 [Compound 32, N-(3-carbamoyl-5,5,7,7-tetramethyl-5,7-dihydro-4H-thieno[2,3-c]pyran-2-yl)-1,4,6,7-tetrahydropyrano[4,3-c]pyrazole-3-carboxamide]	23	39.6	854
CCc1[nH]nc(C(=O)Nc2sc3c(c2C(N)=O)CC(C)(C)OC3(C)C)c1Cl [Compound 36, N-(3-carbamoyl-5,5,7,7-tetramethyl-5,7-dihydro-4H-thieno[2,3-c]pyran-2-yl)-4-chloro-5-ethyl-1H-pyrazole-3-carboxamide]	13	12.4	716
CC1(C)Cc2c(sc(NC(=O)c3[nH]nc4c3COC4)c2C(N)=O)C(C)(C)O1 [Compound 37, N-(3-carbamoyl-5,5,7,7-tetramethyl-5,7-dihydro-4H-thieno[2,3-c]pyran-2-yl)-4,6-dihydro-1H-furo[3,4-c]pyrazole-3-carboxamide]	16	25.4	892
